Experiment [1] has as its system DNAs [calf thymus, poly(dA dT) and poly(dG dC)]. Nature of the experiment: circular dichroism (CD) titration, DNAs together. The experiment is classed as binding. Conditions: for drug-induced CD bands, wavelength: drugs alone do not exhibit any CD spectra. As to the method: The DNA binding properties of the present compounds were assessed by circular dichroism (CD) titration experiments. Methods for CD titration can be found, for example, in Zimmer et al. (1986) Prog. Biophys. Molec. Biol 47, 31. The conformation of DNA can be readily determined by CD experiments, and for B-DNA, characteristic positive and negative Cotton effects are observed at 260 and 245 nm, respectively.
The interaction of Compounds 6-10 to a number of DNAs [calf thymus, poly(dA dT) and poly(dG dC)] were analyzed by CD titration studies. All the CD titration experiments were performed using identical procedures, concentrations of DNA, and increments of drug:DNA ratios (or `r`, i.e. moles of drug to moles of DNA base pairs). Therefore, the differences observed in the CD spectra for the titration of each of the compounds to the polydeoxynucleotides may be directly compared to reflect their DNA binding properties.
All experiments were performed with a continuous flow of nitrogen purging the polarimeter. A 1 mm path length jacketed cell was used and all experiments were done at room temperature. Initially, DNA [0.02 μ moles (base pairs), 130 μL] was placed in the cell and the spectrum of the DNA alone was collected. Aliquots of drug were added and the spectra collected. The drug solutions were 1 mM and amounts of the drug added correspond to a drug to base pair ratio of 0.05, 0.10, 0.15, 0.20, 0.25, 0.30, 0.40, 0.50, 0.60, 0.80, 1.00. The scan parameters were set and standard for all experiments. The spectra were collected from 400 nm to 200 nm. The sensitivity was set at 1 mdeg and the scan speed was set at 20 nm per minute. Three scans were accumulated and automatically averaged by the computer. The λmax and ellipticity (mdeg) for each spectrum were collected from the raw scans and the final plots were smoothed by the noise reduction program on the computer. […] The induced CD band is presumably due to the uv absorption π to π^* transition of the drug in the drug:DNA complex. […] Therefore interaction of these drugs with DNA causes only minor conformational changes in the double helix.
(Circular dichroism is widely used to follow secondary structure.)

In another experiment the test system is calf thymus DNA. The experiment is described as follows: UV-dialysis study (covalent retention on DNA). The experiment is classed as binding. Conditions: 24 h incubation at room temperature; 20-26 hours dialysis; pH 7.1. The source says:
The compounds of the present invention are useful as anticancer agents. Although the biological mechanism which results in anticancer activity is not fully understood, the compounds of the subject invention are capable of binding to the minor groove of double-stranded DNA and, unlike distamycin and netropsin, can tolerate GC-containing DNA. Accordingly, the DNA alkylating moiety of the compounds of the present invention can be directed to the minor groove of GC-containing regions of double-stranded DNA. One of ordinary skill in the art can determine the DNA alkylating ability of the compounds of the present invention by art-recognized methods. The formation of an irreversible adduct of DNA and a compound of the present invention is defined herein as a measure of the DNA alkylating ability of the subject compounds. The formation of an irreversible adduct can be determined by art-recognized methods. For example, a solution containing DNA and a compound of the present invention can be exhaustively dialyzed under conditions which allow unbound drug to pass out of the dialysis bag. The percentage of the compound which has been retained in the dialysis bag is considered to be covalently bound to the DNA, and is determined by comparing the UV absorption spectrum of the compound/DNA solution before and after exhaustive dialysis.
0.5 mL of 2A260 calf thymus DNA was diluted to 2 mL with 10 mM sodium phosphate and 0.25 mM EDTA buffer, pH 7.1. Four aliquots (3 μL each) of a 1 mM stock drug solution in distilled water were added to the DNA solution and a UV absorption spectrum (300-320) was recorded after each addition. The drug/DNA solution was incubated for 24 h at room temperature and another UV spectrum was recorded. The drug/DNA solution was then transferred into a dialysis bag and the dialysis bag was suspended in 30 mL of 10 mM sodium phosphate and 0.25 mM EDTA buffer, pH, 7.1, at room temperature. After 20-26 hours, the […] spectrum of 2 mL of the buffer outside the dialysis bag was recorded. The absorbance of the drug peak was converted to concentration by the Beer-Lambert equation, and the data was presented as percent initial concentration. Under these conditions, substantial amounts of Compounds 6 (55±5%), 7 (45±5%), 8 (85±5%) and 10 (100±5%) are retained in the dialysis bag, while only 29±5% of a formamido analog^1 is retained.

On to `CN(C)CCNC(=O)c1nc(NC(=O)c2nc(NC(=O)CCCc3ccc(N(CCCl)CCCl)cc3)cn2C)cn1C` [Compound 9, N-(N',N'-dimethylaminoethyl)-1-methyl-4-{4-[4,4-bis(2-chloroethyl)aminophenyl-1-butanamido]-1-methylimidazole-2-carboxamido}imidazole-2-carboxamide], for which the “CD titration result in words” value in experiment [1] (three polydeoxyribonucleotides, r' up to 0.8) was “did not produce any notable changes in the CD spectra”. Consider `CN(C)CCNC(=O)c1nc(NC(=O)c2nc(NC(=O)c3nc(NC(=O)CCCc4ccc(N(CCCl)CCCl)cc4)cn3C)cn2C)cn1C` [Compound 10, N-(N',N'-dimethylaminoethyl)-1-methyl-4-{1-methyl-4-[4-(4,4-bis(2-chloroethyl)aminophenyl-1-butanamido)-1-methylimidazole-2-carboxamido]imidazole-2-carboxamido}imidazole-2-carboxamide], for which the “retained in the dialysis bag (percent initial concentration)” value (shortened to “retained … (percent initial concentration)”) with calf thymus DNA stood at 100±5%. Further, the “binding preference from CD titration” value in experiment [1] (induced band for poly(dG.dC) vs poly(dA.dT)) is reported as “binds more strongly to GC rich sequences of DNA”. Regarding `CN(C)CCNC(=O)c1nc(NC(=O)c2nc(NC(=O)c3ccc(N(CCCl)CCCl)cc3)cn2C)cn1C` [Compound 6, N-(N',N'-dimethylaminoethyl)-1-methyl-4-{4-[4,4-bis(2-chloroethyl)aminobenzamido]-1-methylimidazole-2-carboxamido}imidazole-2-carboxamide], in the experiment with calf thymus DNA, the “retained … (percent initial concentration)” value turned out to be 55±5%. Also, the “drug-induced CD bands, wavelength” value in experiment [1] is reported as 290-340 nm. As for `CN(C)CCNC(=O)c1nc(NC(=O)c2nc(NC(=O)c3nc(NC(=O)c4ccc(N(CCCl)CCCl)cc4)cn3C)cn2C)cn1C` [Compound 7, N-(N',N'-dimethylaminoethyl)-1-methyl-4-{1-methyl-4-[4-(4,4-bis-(2-chloroethyl)aminobenzamido)-1-methylimidazole-2-carboxamido]imidazole-2-carboxamido}imidazole-2-carboxamide], in the experiment with calf thymus DNA, the “retained … (percent initial concentration)” value amounted to 45±5%. Further, in experiment [1], the “drug-induced CD bands, wavelength” value was 290-340 nm.

Consider `CN(C)CCNC(=O)c1nc(NC(=O)c2nc(NC(=O)c3nc(NCc4ccc(N(CCCl)CCCl)cc4)cn3C)cn2C)cn1C` [Compound 8, N-(N',N'-dimethylaminoethyl)-1-methyl-4-{1-methyl-4-[4-(4,4-bis-(2-chloroethyl)aminobenzylamino)-1-methylimidazole-2-carboxamido]imidazole-2-carboxamido}imidazole-2-carboxamide], for which, in the experiment on calf thymus DNA, the “retained … (percent initial concentration)” value is 85±5%.

The record behind these values is patent US5273991A, “Imidazole-containing compositions and methods of use thereof analogs of distamycin” (Research Corporation Technologies, Inc., priority 1992, dated 1993).
